Measurements published in patent US9790253B2, “OSW-1 analogs and conjugates, and uses thereof” (priority 2011, dated 2017).
Where a chain is given by its changes, count along the chain named.

Key:
[1] = target: T1, OSBP1-myc-his (Homo sapiens, UniProt P22059); assay: [3H]-25-hydroxycholesterol charcoal-dextran binding assay with OSBP1-myc-his; conditions: for Ki: competition with 20 nM [3H]-25-OHC, HEK-293T S100 lysate, 4° C., 16 h, read-out: [^3H]-25-OHC K1 (nM) OSBP1-myc-his
T1 construct: made in house; host or cells: HEK-293T (transient transfection; S100 lysate, not purified)
T1 sequence (P22059 1-807): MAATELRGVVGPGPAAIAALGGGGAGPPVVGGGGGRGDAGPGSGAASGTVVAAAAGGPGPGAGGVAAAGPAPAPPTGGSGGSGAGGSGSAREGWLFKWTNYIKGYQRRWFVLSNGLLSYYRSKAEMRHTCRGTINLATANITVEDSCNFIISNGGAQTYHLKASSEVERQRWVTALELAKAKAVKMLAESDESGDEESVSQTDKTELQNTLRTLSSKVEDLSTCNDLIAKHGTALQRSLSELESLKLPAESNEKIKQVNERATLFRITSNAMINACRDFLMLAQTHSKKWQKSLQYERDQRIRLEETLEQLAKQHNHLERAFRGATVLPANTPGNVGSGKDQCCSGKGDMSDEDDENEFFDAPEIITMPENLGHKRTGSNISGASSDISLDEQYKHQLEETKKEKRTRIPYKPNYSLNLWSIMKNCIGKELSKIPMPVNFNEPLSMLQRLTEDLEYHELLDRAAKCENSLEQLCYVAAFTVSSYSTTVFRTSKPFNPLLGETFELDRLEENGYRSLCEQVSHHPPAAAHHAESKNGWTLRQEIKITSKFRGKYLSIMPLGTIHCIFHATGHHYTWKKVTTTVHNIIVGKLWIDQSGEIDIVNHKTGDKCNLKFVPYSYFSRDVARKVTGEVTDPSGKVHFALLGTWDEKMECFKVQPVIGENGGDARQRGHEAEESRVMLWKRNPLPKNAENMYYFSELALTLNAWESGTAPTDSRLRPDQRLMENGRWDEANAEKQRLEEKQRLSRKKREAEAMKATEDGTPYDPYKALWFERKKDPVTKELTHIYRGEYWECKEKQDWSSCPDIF
Text: (§1) [^3H]-25-Hydroxycholesterol charcoal-dextran binding assay.
Methods are described above in the General Methods section.

[2] = test system: HeLa cells overexpressing OSBP1(M446W)-myc-his; assay: Overexpression-viability assay, OSBP1(M446W)-myc-his; type: cell-based; conditions: 48 h
Procedure: (§2) Overexpression-viability assays with wild-type and mutant OSBP/ORP4L constructs were carried out by transfecting HeLa cells with the appropriate plasmids using Lipofectamine™ LTX with PLUS™ reagent (Invitrogen) as instructed, and after 8 h of transfection, the cells were re-plated for the cell viability assay, performed as described above. Expression levels were evaluated by immunoblotting at the time of dosing.
(§3) For additional support that OSBP1 and ORP4L are targets of the ORPphilins, dominant drug-resistant alleles of these proteins were sought. 15 OSBP1 residues inside and outside the region of the protein previously reported to mediate sterol binding were mutated (FIG. 4C). The growth inhibition induced by the ORPphilins was determined in HeLa cells overexpressing either wild-type or mutant OSBP1-myc-his proteins. Expression of wt OSBP1-myc-his and mutant OSBP1-myc-his were nearly equivalent as measured by western blot.
(§4) The same mutant caused a 3.9-fold reduction in the antiproliferative activity of OSW-1 (2) (FIG. 4E2) and a 2.7-fold reduction in the activity of schweinfurthin A (4a) (FIG. 4E3). […] The antiproliferative activity of taxol was unaffected by expression of these two OSBP1 mutant proteins (FIGS. 4E4, 4E8).

[3] = test system: HeLa cells overexpressing OSBP1(V582M); assay: Overexpression-viability assay, OSBP1(V582M)-myc-his; type: cell-based; conditions: 48 h
Procedure: as §2, §3, §4

[4] = target: T2, OSBP1(M446W) (Homo sapiens, UniProt P22059, M446W); assay: [3H]-25-OHC binding, OSBP1(M446W) mutant; conditions: for binding affinity for OSBP1(M446W) compared to wt OSBP1-myc-his: [3H]-25-OHC competition binding
T2 construct: made in house; host or cells: HEK-293T (transient transfection; S100 lysate, not purified)
T2 sequence (P22059 1-807 M446W): T1 sequence (P22059 1-807) with M446W
Procedure: as §1
The binding affinity of 1, 2 and 4a to the OSBP1(M446W) and OSBP1(V582M) mutants were then determined using [^3H]-25-OHC competition binding. […] Within error limits, the binding affinity of 1, 2 and 4a for these two OSBP1 mutants were unchanged compared to wt OSBP1-myc-his (FIG. 4D).

[5] = test system: NPC1^−/− (M12) CHO cells; assay: Antiproliferative activity in NPC1-/- (M12) CHO cells; type: cell-based
[6] = test system: CHO-7 cells; assay: Antiproliferative activity in CHO-7 cells, lipoprotein-deficient media; type: cell-based
Text: FIG. 4B is a bar graph depicting how removal of lipoproteins from the growth medium sensitizes CHO-7 cells to 25-OHC but not 1, 2, or 4a. Mean±s.d. of two individual experiments. Bref A, brefeldin A.
Insig is a chief regulator of SREBP-dependent cholesterol homeostasis, and 25-OHC exerts much of its ability to inhibit cholesterol biosynthesis through its binding to Insig. The possibility that suppression of the antiproliferative activity of the ORPphilins by 25-OHC could be due to displacement of these compounds from NPC1 or Insig was considered. […] In addition, the antiproliferative activity of 1-4a was evaluated in the CHO-7 cell line, which is a cell line adapted to grow in lipoprotein-deficient media. In lipoprotein-deficient media, CHO-7 cells are dependent on Insig-mediated cholesterol biosynthesis for survival, and are therefore sensitive to 25-OHC binding to Insig. Unlike 25-OHC, the antiproliferative activity of 1, 2, and 4a in CHO-7 cells was not enhanced in lipoprotein-deficient media.

Molecule	Ki [1] [nM]	reduction in antiproliferative activity at the GI50 level, OSBP1(M446W) vs wt OSBP1 [2] [fold]	reduction in antiproliferative activity, OSBP1(V582M) vs wt OSBP1 [3]	binding affinity for OSBP1(M446W) compared to wt OSBP1-myc-his [4]	antiproliferative activity in NPC1−/− (M12) CHO cells compared to wt CHO cells [5]	antiproliferative activity in lipoprotein-deficient media [6]	Kd ([1]; direct binding) [µM]	binding affinity of 25-OHC for OSBP1(M446W) compared to wt [4]
schweinfurthin A	68 ± 23	2.7	did not affect	unchanged	no change	not enhanced	–	–
COc1ccc(C(=O)O[C@H]2[C@H](O[C@@H]3[C@@H](OC(C)=O)[C@H](O[C@H]4C[C@H]5[C@@H]6CC=C7C[C@@H](O)CC[C@]7(C)[C@H]6CC[C@]5(C)[C@@]4(O)[C@H](C)C(=O)CCC(C)C)OC[C@@H]3O)OC[C@@H](O)[C@@H]2O)cc1 [OSW-1]	26 ± 9	3.9	did not affect	unchanged	no change	not enhanced	–	–
C[C@H](CCCC(C)(C)O)[C@H]1CC[C@H]2[C@@H]3CC=C4C[C@@H](O)CC[C@]4(C)[C@H]3CC[C@]12C [Compound 25-OHC, 25-hydroxycholesterol]	–	–	–	–	–	–	0.032 ± 0.014	identical to wt
C[C@@H]1[C@]2(O[C@H]3C=C4[C@@H]5CC[C@H]6Cc7nc8c(nc7C[C@]6(C)[C@H]5C[C@@H](O)[C@]4(C)[C@]31O)C[C@@H]1CC[C@H]3C4=CC[C@@H]5[C@H](C)[C@@]6(OC[C@]45C(=O)C[C@@H]3[C@@]1(C)C8)OC(C)(C)C[C@H]6O)O[C@](C)(CO)C[C@H]2O [cephalostatin 1, Cephalostatin 1]	39 ± 10	18	9.4 fold	unchanged	no change	not enhanced	–	–
